Source: patent US20240270821A1, “GIP/GLP1/GCG TRI-RECEPTOR AGONISTS AND USES THEREOF” (priority 2023, published 2024)
Like-named read-outs stand apart in the source and are kept apart here. Starred links: 1 amine or outer side, 2 acyl side, 3 side chain; linkers in the order of their positions; H or OH if unused. Non-standard residues stand in square brackets, D forms with d. Groups on a side chain read outwards from the residue. No end group written: not given here. *: point of attachment. C20 diacid = O=C(O)CCCCCCCCCCCCCCCCCCC(=O)*; C18 diacid = O=C(O)CCCCCCCCCCCCCCCCC(=O)*; αMePhe(2-F) = C[C@](N)(Cc1ccccc1F)C(=O)O; γGlu = O=C(O)[C@H](CCC(=O)[*:2])N[*:1]; αMe4Pal = C[C@](N)(Cc1ccncc1)C(=O)O; αMeY = C[C@](N)(Cc1ccc(O)cc1)C(=O)O; 4Pal = N[C@@H](Cc1ccncc1)C(=O)O; αMeL = CC(C)C[C@](C)(N)C(=O)O; αMeS = C[C@](N)(CO)C(=O)O; Orn = NCCC[C@H](N)C(=O)O; AEEA = NCCOCCOCC(=O)O; Aib = CC(C)(N)C(=O)O

Assays:
Type in all cases: cell-based
hGIPR [1] = molecular target: T1, hGIPR (Homo sapiens, UniProt P48546); experiment: Functional cAMP activation in the presence of 0.1% casein (no HSA); conditions: read-out: Relative cAMP EC50, hGIPR;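 note: intracellular cAMP rise after 30 min at 37 °C read by HTRF against a standard curve, scaled between buffer alone (0%) and top control ligand concentration (100%), four-parameter fit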
T1 sequence (P48546 22-466): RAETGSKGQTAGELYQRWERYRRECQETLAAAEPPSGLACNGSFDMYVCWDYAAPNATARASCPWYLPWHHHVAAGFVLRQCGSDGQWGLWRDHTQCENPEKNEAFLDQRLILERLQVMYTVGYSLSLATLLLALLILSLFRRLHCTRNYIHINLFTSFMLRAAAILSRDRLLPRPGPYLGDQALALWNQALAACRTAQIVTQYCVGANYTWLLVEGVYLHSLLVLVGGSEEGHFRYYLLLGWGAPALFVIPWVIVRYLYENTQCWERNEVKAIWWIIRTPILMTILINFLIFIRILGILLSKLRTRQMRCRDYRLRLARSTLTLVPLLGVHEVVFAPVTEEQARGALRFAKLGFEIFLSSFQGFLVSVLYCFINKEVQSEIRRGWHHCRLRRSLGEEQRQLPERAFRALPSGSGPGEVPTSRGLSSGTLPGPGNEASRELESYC

hGIPR [2] = molecular target: T1, hGIPR; experiment: Functional cAMP activity in the presence of 1% HSA; conditions: read-out: cAMP Rel EC50, hGIPR
human GcgR = human GcgR (Homo sapiens, UniProt P47871); experiment: Functional cAMP activity in the presence of 1% HSA; conditions: read-out: cAMP Rel EC50, hGcgR
human GcgR, sequence (P47871 26-477): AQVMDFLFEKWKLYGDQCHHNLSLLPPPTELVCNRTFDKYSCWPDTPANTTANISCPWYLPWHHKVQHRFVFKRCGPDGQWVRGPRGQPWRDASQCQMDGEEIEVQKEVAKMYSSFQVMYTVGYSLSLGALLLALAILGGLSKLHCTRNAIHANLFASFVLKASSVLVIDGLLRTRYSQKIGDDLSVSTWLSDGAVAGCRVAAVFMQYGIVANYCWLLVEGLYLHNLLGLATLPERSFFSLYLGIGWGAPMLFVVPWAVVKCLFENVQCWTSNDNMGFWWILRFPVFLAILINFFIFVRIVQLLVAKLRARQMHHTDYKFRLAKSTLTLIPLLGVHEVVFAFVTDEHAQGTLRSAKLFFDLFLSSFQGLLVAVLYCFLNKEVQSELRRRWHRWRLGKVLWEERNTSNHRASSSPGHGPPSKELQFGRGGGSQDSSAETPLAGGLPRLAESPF

hGcgR = hGcgR (Homo sapiens, UniProt P47871); experiment: Functional cAMP activation in the presence of 0.1% casein (no HSA); conditions: read-out: Relative cAMP EC50, hGcgR;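 note: intracellular cAMP rise after 30 min at 37 °C, read by HTRF against a cAMP standard curve, scaled from buffer only (0%) to maximal control ligand response (100%)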
hGcgR, sequence (P47871 26-477): as above

hGLP-1R [3] = molecular target: T2, hGLP-1R (Homo sapiens, UniProt P43220); experiment: Functional cAMP activity in the presence of 1% HSA; conditions: read-out: cAMP Rel EC50, hGLP-1R
T2 sequence (P43220 24-463): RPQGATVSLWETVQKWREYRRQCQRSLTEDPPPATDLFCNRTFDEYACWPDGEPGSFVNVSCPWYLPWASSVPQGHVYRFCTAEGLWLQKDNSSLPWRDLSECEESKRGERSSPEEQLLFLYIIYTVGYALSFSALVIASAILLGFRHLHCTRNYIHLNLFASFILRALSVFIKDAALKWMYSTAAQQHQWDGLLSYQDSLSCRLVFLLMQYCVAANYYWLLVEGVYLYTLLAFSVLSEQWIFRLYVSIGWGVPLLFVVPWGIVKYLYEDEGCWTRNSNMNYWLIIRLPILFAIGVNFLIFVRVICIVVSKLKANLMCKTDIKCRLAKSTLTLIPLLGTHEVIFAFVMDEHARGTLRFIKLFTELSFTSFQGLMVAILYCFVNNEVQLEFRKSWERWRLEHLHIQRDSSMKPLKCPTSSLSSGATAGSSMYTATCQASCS

hGLP-1R [4] = molecular target: T2, hGLP-1R; experiment: Functional cAMP activation in the presence of 0.1% casein (no HSA); conditions: read-out: Relative cAMP EC50, hGLP-1R;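 note: intracellular cAMP rise after 30 min at 37 °C read by HTRF, normalized between buffer only (0%) and maximal control ligand (100%), four-parameter variable-slope fit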
[5] = 0.1% casein, no HSA, geometric mean
[6] = in the presence of 0.1% casein (no HSA), geometric mean

Compound | EC50 (hGIPR [1]; [5]) [nM] | EC50 (hGIPR [2]) [nM] | EC50 (human GcgR) [nM] | EC50 (hGcgR; [5]) [nM] | EC50 (hGLP-1R [3]) [nM] | EC50 (hGLP-1R [4]; [5]) [nM] | EC50 (hGIPR [1]; [6]) [nM] | EC50 (hGcgR; [6]) [nM] | EC50 (hGLP-1R [4]; [6]) [nM] | EC50 (hGIPR [1]) [nM] | EC50 (hGcgR) [nM] | EC50 (hGLP-1R [4]) [nM]
H-Y[Aib]QGTFTSD[4Pal]SQ[αMeL]LDKK([Glu-Glu-γGlu-C18 diacid])AQ[αMe4Pal]AFIEYLIAGGPSSGAPPPSGE-NH2 [Example 1087] |  | 23.3 | 2460 |  | 439 |  | 0.207 | 15.4 | 2.63 |  |  | 
Y[Aib]QGTFTSD[4Pal]SQ[αMeL]LDKK([dE-γGlu-dE-C18 diacid])AQ[αMe4Pal]AFIEYLIE[Aib]GPSSGAPPPSGSEE-NH2 [Example 931] |  | 20.8 | 2300 |  | 878 |  | 0.256 | 12.2 | 11.3 |  |  | 
CC[C@H](C)[C@H](NC(=O)[C@H](CC(C)C)NC(=O)[C@](C)(Cc1ccc(O)cc1)NC(=O)[C@@H](CCC(=O)O)NC(=O)[C@@H](NC(=O)[C@H](Cc1ccccc1)NC(=O)[C@H](CCC(=O)O)NC(=O)C(C)(C)NC(=O)[C@H](C)NC(=O)[C@H](C)NC(=O)[C@H](CCCCNC(=O)COCCOCCNC(=O)CC[C@H](NC(=O)CCCCCCCCCCCCCCCCC(=O)O)C(=O)O)NC(=O)[C@H](CCCN)NC(=O)[C@H](CC(=O)O)NC(=O)[C@H](CC(C)C)NC(=O)[C@](C)(CC(C)C)NC(=O)[C@@H](NC(=O)[C@](C)(CO)NC(=O)[C@H](Cc1ccncc1)NC(=O)[C@H](CC(=O)O)NC(=O)[C@H](CO)NC(=O)[C@@H](NC(=O)[C@](C)(Cc1ccccc1F)NC(=O)[C@@H](NC(=O)CNC(=O)[C@H](CCC(N)=O)NC(=O)C(C)(C)NC(=O)[C@@H](N)Cc1ccc(O)cc1)[C@@H](C)O)[C@@H](C)O)[C@@H](C)CC)[C@@H](C)CC)C(=O)N[C@@H](CCC(=O)O)C(=O)NCC(=O)NCC(=O)N1CCC[C@H]1C(=O)N[C@@H](CO)C(=O)N[C@@H](CO)C(=O)NCC(=O)N[C@@H](C)C(=O)N1CCC[C@H]1C(=O)N1CCC[C@H]1C(=O)N1CCC[C@H]1C(=O)N[C@@H](CO)C(=O)NCC(=O)N[C@@H](CO)C(=O)N[C@@H](CCC(=O)O)C(=O)N[C@@H](CCC(=O)O)C(N)=O [Example 704] |  | 1.2 | 239 |  | 33.9 |  |  |  |  | 0.013 | 1.85 | 0.287

Further lines, with some results ahead:

EC50 (hGIPR [1]; [5]) [nM] | EC50 (hGIPR [2]) [nM] | EC50 (human GcgR) [nM] | EC50 (hGcgR; [5]) [nM] | EC50 (hGLP-1R [3]) [nM] | EC50 (hGLP-1R [4]; [5]) [nM] | Compound | EC50 (hGIPR [1]; [6]) [nM] | EC50 (hGcgR; [6]) [nM] | EC50 (hGLP-1R [4]; [6]) [nM] | EC50 (hGIPR [1]) [nM] | EC50 (hGcgR) [nM] | EC50 (hGLP-1R [4]) [nM]
0.00883 | 0.896 | 278 | 1.5 | 91.4 | 0.727 | H-Y[Aib]QGT[αMePhe(2-F)]TSD[4Pal][αMeS]I[αMeL]LD[Orn]K([AEEA-γGlu-C18 diacid])AQ[αMe4Pal]EFI[dE][αMeY]LIEGGPPS[Aib]EPPPSGSE-NH2 [Example 1200] |  |  |  |  |  | 
 | 24 | 374 |  | 217 |  | H-Y[Aib]QGTFTSD[4Pal]S[Orn][αMeL]LD[Orn]K([γGlu-γGlu-C18 diacid])AQ[αMe4Pal]AFIEYLIAGGPSSGEPPPSGTEE-NH2 [Example 985] | 0.34 | 5.41 | 2.93 |  |  | 
 | 83.7 | 1500 |  | 172 |  | H-Y[Aib]QGTFTSDYSI[αMeL]LDKQAAK([AEEA-AEEA-γGlu-C20 diacid])QFVEWLIA[Aib]GPSSGEPPPSEG-NH2 [Example 326] | 0.3 | 5.34 | 0.555 |  |  | 
 | 28.7 | 2330 |  | 224 |  | H-Y[Aib]QGT[αMePhe(2-F)]TSD[4Pal]SI[αMeL]LD[Orn]K([AEEA-γGlu-C18 diacid])AQ[αMe4Pal][Orn]FI[dE][αMeY]LEEGGPSSGEPPPEGT-NH2 [Example 506] |  |  |  | 0.308 | 17.1 | 2.14
